Read-outs that look alike come from different tables or passages of the source.
Legend:
[1] = Solubility in water (solubility classes of screening compounds); assay type: physicochemical
[2] = test system: Dengue 2 (DENV-2 strain NG-2); test: microbe, parasite or virus in culture; assay type: cell-based, Dengue virus
[3] = test system: MRSA Staphylococcus aureus; test: Anti-adhesion assay for MRSA Staphylococcus aureus; assay type: cell-based; conditions: for IC50: read-out: IC50 anti-adhesion MRSA Staphylococcus aureus; for ICMAX (μM), IC100: maximal inhibition given as IC100
P. aerug. = test: Effectiveness towards P. aerug. (cystic fibrosis application, IC50 % wt/vol); assay type: cell-based, Pseudomonas aeruginosa
Dengue virus = test: Direct binding assay (DART TOF-MS) to Dengue virus; conditions: FIG. 6
Source text: The virus particles were collected and fixed in 100% (USP) ethanol prior to DART TOF-MS analysis. The closed end of a borosilicate glass capillary tube was immersed in the virion solution and passed through the DART He plasma to obtain mass spectra of virion surface-bound chemistries. […] The same conditions were used to assess the binding of composition here to bacterial species.

Staphylococcus areus = test: Direct binding assay (DART TOF-MS) to Staphylococcus aureus; conditions: FIG. 7
Colletotrichum acutatum = test: Petri dish assay for activity against Colletotrichum acutatum (spore adhesion to polystyrene)
S. aureus = test: Effectiveness towards S. aureus (IC50 % wt/vol); assay type: cell-based, Staphylococcus aureus

## CNC(=O)C(Cc1ccc(OS(C)(=O)=O)cc1)NC(=O)COCC(=O)Nc1cccc(OS(C)(=O)=O)c1 (stereo not shown) [Compound A02]
[1]
  Solubility in water: insoluble in water

## CNC(=O)C(Cc1ccc(OS(=O)(=O)C(F)(F)F)cc1)NC(=O)COCC(=O)Nc1cccc(OS(=O)(=O)C(F)(F)F)c1 (stereo not shown) [Compound B02]
[1]
  Solubility in water: insoluble in water

## CCN(CCOC(=O)/C=C/c1ccc(O)cc1)Cc1cc(Cl)ccc1O [Compound I]
[2]; FIG. 6, virions from direct binding assay
  Dengue infection when compound is bound to virus: inhibited
[3]; FIG. 7
  Adhesion of Staphylococcus areus when compound is bound: blocks adhesion
[3]; maximal inhibition printed as IC70, value is the concentration
  ICMAX (μM), IC70: IC70 - 120 μM
P. aerug.
  IC50 (% wt/vol), pathogen P. aerug.: 0.001 % wt/vol
Dengue virus
  Direct binding to Dengue virus (DART-MS peak): direct binding
Staphylococcus areus
  Direct binding to Staphylococcus areus (DART-MS peak): binds to the bacteria
Colletotrichum acutatum
  IC50 (% wt/vol), pathogen C. acut.: 0.004 % wt/vol

## CN(CCCNC(=O)c1ccc(O)cc1)CCCNC(=O)c1ccc2cc(O)ccc2c1 [III]
[3]; Staphylococcus aureus, MRSA
  IC50: 7.1 µM
[3]; value is the concentration
  ICMAX (μM), IC100: IC100 - 100 μM
S. aureus
  IC50 (% wt/vol), pathogen S. aure.: <0.017 % wt/vol
P. aerug.
  IC50 (% wt/vol), pathogen P. aerug.: 0.001 % wt/vol
Colletotrichum acutatum
  IC50 (% wt/vol), pathogen C. acut.: <0.005 % wt/vol

## CN(CCCNC(=O)c1ccc(O)cc1)CCCNC(=O)c1ccc(O)cc1 [IV]
[3]; Staphylococcus aureus, MRSA
  IC50: 1.5 µM
[3]; Staphylococcus aureus, MRSA, read-out: ICMAX (μM), IC90
  IC90: 10 µM

## O=C(c1ccc(O)cc1)N1CCCN(C(=O)c2ccc3cc(O)ccc3c2)CC1 [VI]
[2]; Dengue virus, DENV2, LLC-MK2, read-out: IC50 Dengue 2, anti-infection (adhesion)
  IC50: 114 µM
[3]; Staphylococcus aureus, MRSA
  IC50: 2.5 µM
[3]; value is the concentration
  ICMAX (μM), IC100: IC100 - 10 μM
S. aureus
  IC50 (% wt/vol), pathogen S. aure.: <0.017 % wt/vol
P. aerug.
  IC50 (% wt/vol), pathogen P. aerug.: <0.005 % wt/vol
Colletotrichum acutatum
  IC50 (% wt/vol), pathogen C. acut.: <0.005 % wt/vol

## O=C(O)/C=C/c1ccc(OS(=O)(=O)O)cc1 [Zosteric Acid, reference compound]
[2]; from graph of % inhibition versus concentration, read-out: IC50 Dengue 2, anti-infection (adhesion)
  IC50: 1190 µM
[3]; value is the concentration
  ICMAX (μM), IC100: IC100 - 90 μM
[3]
  IC50: 24.8 µM
